From US10899759B2, “Positive allosteric modulators of the muscarinic acetylcholine receptor M1” (Vanderbilt University, priority 2016, dated 2021) come the findings set out here.

Where two headings read alike, the source gives them in different places.

In this assay the target is T1, human mAChR M1 (Homo sapiens, UniProt P11229).
T1 construct: host or cells: CHO-K1
T1 sequence (P11229 1-460): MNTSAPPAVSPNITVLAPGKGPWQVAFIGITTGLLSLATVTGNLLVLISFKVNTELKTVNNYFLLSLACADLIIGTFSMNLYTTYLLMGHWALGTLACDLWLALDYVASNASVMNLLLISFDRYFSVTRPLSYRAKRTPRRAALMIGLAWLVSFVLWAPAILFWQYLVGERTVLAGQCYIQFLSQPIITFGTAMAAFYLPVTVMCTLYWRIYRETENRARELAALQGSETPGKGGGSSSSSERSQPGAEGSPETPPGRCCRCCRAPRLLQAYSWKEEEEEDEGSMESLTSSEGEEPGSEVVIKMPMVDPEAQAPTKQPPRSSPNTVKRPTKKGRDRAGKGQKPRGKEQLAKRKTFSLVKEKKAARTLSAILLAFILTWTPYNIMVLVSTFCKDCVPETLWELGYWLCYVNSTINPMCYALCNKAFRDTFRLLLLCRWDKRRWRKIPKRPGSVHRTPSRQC
Description: mAChR M1 cell-based functional assay (calcium mobilization, Fluo-4, FDSS). To be noted: for EC50: positive allosteric modulator activity as increase in the EC20 acetylcholine response. Here is the method: Chinese hamster ovary (CHO-K1) cells stably expressing rat (r)M1 were purchased from the American Type Culture Collection and cultured according to their indicated protocol. […] To make stable rM2, hM2, rM3, hM4, and rM4 cell lines for use in calcium mobilization assays, these cells also were stably transfected with a chimeric G-protein (Gqi5) (provided by B. R. Conklin, University of California, San Francisco) using Lipofectamine 2000. rM1, hM1, rM3, hM3, rM5, and hM5 cells were grown in Ham's F-12 medium containing 10% heat-inactivated fetal bovine serum (FBS), 20 mM HEPES, and 50 μg/mL G418 sulfate. rM2-Gqi5, hM2-Gqi5, and hM4-Gqi5 cells were grown in the same medium also containing 500 μg/mL Hygromycin B. Stable rM4-Gqi5 cells were grown in DMEM containing 10% heat-inactivated FBS, 20 mM HEPES, 400 μg/mL G418 sulfate, and 500 μg/mL Hygromycin B.
For high throughput measurement of agonist-evoked increases in intracellular calcium, CHO-K1 cells stably expressing muscarinic receptors were plated in growth medium lacking G418 and hygromycin at 15,000 cells/20 μL/well in Greiner 384-well black-walled, tissue culture (TC)-treated, clear-bottom plates (VWR). Cells were incubated overnight at 37° C. and 5% CO2. […] Compound master plates were formatted in an 11 point CRC format (1:3 dilutions) in 100% DMSO with a starting concentration of 10 mM using the BRAVO liquid handler (Agilent). Test compound CRCs were then transferred to daughter plates (240 nL) using the Echo acoustic plate reformatter (Labcyte, Sunnyvale, Calif.) and then diluted into assay buffer (40 μL) to a 2× stock using a Thermo Fisher Combi (Thermo Fisher Scientific, Waltham, Mass.).
Calcium flux was measured using the Functional Drug Screening System (FDSS) 6000 (Hamamatsu Corporation, Tokyo, Japan) as an increase in the fluorescent static ratio. Compounds were applied to cells (20 μL, 2×) using the automated system of the FDSS 6000 at 4 s into the 300 s protocol and the data were collected at 1 Hz. […] Agonist activity was analyzed as a concentration-dependent increase in calcium mobilization upon compound addition. Positive allosteric modulator activity was analyzed as a concentration-dependent increase in the EC20 acetylcholine response. Antagonist activity was analyzed as a concentration-dependent decrease in the EC80 acetylcholine response. Concentration-response curves were generated using a four-parameter logistical equation in XLfit curve fitting software (IDBS, Bridgewater, N.J.) for Excel (Microsoft, Redmond, Wash.) or Prism (GraphPad Software, Inc., San Diego, Calif.).
The compound numbers correspond to the compound numbers used in Table 1.

Where [1] appears, read: CHO-K1 cells stably expressing hM1.
Where [2] appears, read: CHO-K1 cells stably expressing hM1, EC20 acetylcholine response, read-out: Human M1 Emax.

In general, EC50 refers to the concentration needed to bring the measured effect to its halfway point. In the case of “1-methyl-N-tetrahydropyran-4-yl-4-[(4-thiazol-2-ylphenyl)methyl]pyrrolo[2,3-b]pyridine-6-carboxamide [Compound 61]”, the “Human M1 Emax” value (CHO-K1 cells stably expressing hM1, EC20 acetylcholine response) was determined as 56.7%. For the same compound, under setting [1], the EC50 is 840 nM.
A word on the Emax: it is the size of the effect at its maximum, as opposed to the concentration needed. Regarding `Cn1ncc2c(Cc3ccc(-c4cscn4)cc3)cc(C(=O)NC3CCOCC3)nc21` [Compound 1, 1-methyl-N-tetrahydropyran-4-yl-4-[(4-thiazol-4-ylphenyl)methyl]pyrazolo[3,4-b]pyridine-6-carboxamide], the Emax under setting [2] came out at 69%. The EC50 under setting [1] was 1420 nM.
The corresponding values for `Cn1ccc2c(Cc3ccc(-c4cscn4)cc3)cc(C(=O)NC3CCOCC3)nc21` [Compound 2, 1-methyl-N-tetrahydropyran-4-yl-4-[(4-thiazol-4-ylphenyl)methyl]pyrrolo[2,3-b]pyridine-6-carboxamide] are 71.2% and 230 nM.
Take `Cn1ccc2c(Cc3ccc(-c4cscn4)cc3)cc(C(=O)N[C@H]3CC[C@@H]3O)nc21` [Compound 3, N-[(1S,2S)-2-hydroxycyclobutyl]-1-methyl-4-[(4-thiazol-4-ylphenyl)methyl]pyrrolo[2,3-b]pyridine-6-carboxamide]: for the setting “CHO-K1, read-out: Human M1 Emax”, the Emax was 70.4%. Under setting [1], the EC50 worked out at 360 nM.
Regarding `Cc1nc(-c2ccc(Cc3cc(C(=O)NC4CCOCC4)nc4sccc34)cc2)co1` [Compound 4, 4-[[4-(2-methyloxazol-4-yl)phenyl]methyl]-N-tetrahydropyran-4-yl-thieno[2,3-b]pyridine-6-carboxamide], under setting [2], the Emax came to 57.9%. Under setting [1], the EC50 came to 140 nM.
As for `Cn1ncc2c(Cc3ccc(-n4cccn4)cc3)cc(C(=O)NC3CCOCC3)nc21` [Compound 5, 1-methyl-4-[(4-pyrazol-1-ylphenyl)methyl]-N-tetrahydropyran-4-yl-pyrazolo[3,4-b]pyridine-6-carboxamide], the Emax under setting [2] came to 67.9%. The EC50 under setting [1] was 5940 nM.
The corresponding values for `Cn1ncc2c(Cc3ccc(-n4cccn4)cc3)cc(C(=O)NC3CC4(COC4)C3)nc21` [Compound 6, 1-methyl-N-(2-oxaspiro[3.3]heptan-6-yl)-4-[(4-pyrazol-1-ylphenyl)methyl]pyrazolo[3,4-b]pyridine-6-carboxamide] are 69.9% and 1730 nM.
Consider `Cn1ncc2c(Cc3ccc(-n4cccn4)cc3)cc(C(=O)N[C@H]3CCOC[C@@H]3O)nc21` [Compound 7, N-[(3R,4S)-3-hydroxytetrahydropyran-4-yl]-1-methyl-4-[(4-pyrazol-1-ylphenyl)methyl]pyrazolo[3,4-b]pyridine-6-carboxamide], for which the Emax under setting [2] was determined as 89%. Under setting [1], the EC50 was found to be 200 nM.
As for `Cn1ncc2c(Cc3ccc(-n4cccn4)cc3)cc(C(=O)N[C@H]3CCCC[C@@H]3O)nc21` [Compound 8, N-[(1S,2S)-2-hydroxycyclohexyl]-1-methyl-4-[(4-pyrazol-1-ylphenyl)methyl]pyrazolo[3,4-b]pyridine-6-carboxamide], under setting [2], the Emax turned out to be 86.6%. Moreover, under setting [1], the EC50 was 200 nM.
The corresponding values for `CCn1ccc2c(Cc3ccc(-n4cccn4)cc3)cc(C(=O)N[C@H]3CCOC[C@@H]3O)nc21` [Compound 9, 1-ethyl-N-[(3R,4S)-3-hydroxytetrahydropyran-4-yl]-4-[(4-pyrazol-1-ylphenyl)methyl]pyrrolo[2,3-b]pyridine-6-carboxamide] are 64.7% and 20 nM.
Turning to `CCn1ccc2c(Cc3ccc(-n4cccn4)cc3)cc(C(=O)N[C@H]3CCCC[C@@H]3O)nc21` [Compound 10, 1-ethyl-N-[(1S,2S)-2-hydroxycyclohexyl]-4-[(4-pyrazol-1-ylphenyl)methyl]pyrrolo[2,3-b]pyridine-6-carboxamide], under setting [2], the Emax was determined as 69.9%. In addition, the EC50 under setting [1] stood at 60 nM.
On the same counts, the results for `CCn1ccc2c(Cc3ccc(-n4cccn4)cc3)cc(C(=O)NC3CCOCC3)nc21` [Compound 11, 1-ethyl-4-[(4-pyrazol-1-ylphenyl)methyl]-N-tetrahydropyran-4-yl-pyrrolo[2,3-b]pyridine-6-carboxamide] are 74% and 280 nM.
Consider `CCn1ccc2c(Cc3ccc(-n4cccn4)cc3)cc(C(=O)NC3CC4(COC4)C3)nc21` [Compound 12, 1-ethyl-N-(2-oxaspiro[3.3]heptan-6-yl)-4-[(4-pyrazol-1-ylphenyl)methyl]pyrrolo[2,3-b]pyridine-6-carboxamide], for which the Emax under setting [2] was 72.3%. Further, the EC50 under setting [1] came out at 200 nM.
As to `CCn1ccc2c(Cc3ccc(-n4cccn4)cc3)cc(C(=O)N[C@H]3CC[C@@H]3O)nc21` [Compound 13, 1-ethyl-N-[(1S,2S)-2-hydroxycyclobutyl]-4-[(4-pyrazol-1-ylphenyl)methyl]pyrrolo[2,3-b]pyridine-6-carboxamide], the Emax under setting [2] came out at 70.7%. Moreover, under setting [1], the EC50 was determined as 410 nM.
On the same counts, the results for `CCn1ccc2c(Cc3ccc(-n4cccn4)cc3)cc(C(=O)N[C@H]3CCC[C@@H]3O)nc21` [Compound 14, 1-ethyl-N-[(1S,2S)-2-hydroxycyclopentyl]-4-[(4-pyrazol-1-ylphenyl)methyl]pyrrolo[2,3-b]pyridine-6-carboxamide] are 69.4% and 150 nM.
In the case of `CCn1ccc2c(Cc3ccc(-n4cccn4)cc3)cc(C(=O)N[C@H]3CCCCC[C@@H]3O)nc21` [Compound 15, 1-ethyl-N-[(1S,2S)-2-hydroxycycloheptyl]-4-[(4-pyrazol-1-ylphenyl)methyl]pyrrolo[2,3-b]pyridine-6-carboxamide], under setting [2], the Emax was 61.8%. In addition, the EC50 under setting [1] was found to be 140 nM.
On the same counts, the results for `Cn1ccc2c(Cc3ccc(-n4cccn4)cc3)cc(C(=O)N[C@H]3CCOC[C@@H]3O)nc21` [Compound 16, N-[(3R,4S)-3-hydroxytetrahydropyran-4-yl]-1-methyl-4-[(4-pyrazol-1-ylphenyl)methyl]pyrrolo[2,3-b]pyridine-6-carboxamide] are 63.4% and 10 nM.
The corresponding values for `Cn1ccc2c(Cc3ccc(-n4cccn4)cc3)cc(C(=O)N[C@H]3CCCC[C@@H]3O)nc21` [Compound 17, N-[(1S,2S)-2-hydroxycyclohexyl]-1-methyl-4-[(4-pyrazol-1-ylphenyl)methyl]pyrrolo[2,3-b]pyridine-6-carboxamide] are 66.4% and 30 nM.
On to `Cn1ccc2c(Cc3ccc(-n4cccn4)cc3)cc(C(=O)NC3CCOCC3)nc21` [Compound 18, 1-methyl-4-[(4-pyrazol-1-ylphenyl)methyl]-N-tetrahydropyran-4-yl-pyrrolo[2,3-b]pyridine-6-carboxamide], for which, under setting [2], the Emax is 73.1%. For the same compound, under setting [1], the half-maximal effective concentration (EC50) was determined as 180 nM.
As for `Cn1ccc2c(Cc3ccc(-n4cccn4)cc3)cc(C(=O)NC3CC4(COC4)C3)nc21` [Compound 19, 1-methyl-N-(2-oxaspiro[3.3]heptan-6-yl)-4-[(4-pyrazol-1-ylphenyl)methyl]pyrrolo[2,3-b]pyridine-6-carboxamide], under setting [2], the Emax was found to be 68.7%. Also, the EC50 under setting [1] was determined as 110 nM.
For the compound `Cn1ccc2c(Cc3ccc(-n4cccn4)cc3)cc(C(=O)N[C@H]3CC[C@@H]3O)nc21` [Compound 20, N-[(1S,2S)-2-hydroxycyclobutyl]-1-methy1-4-[(4-pyrazol-1-ylphenyl)methyl]pyrrolo[2,3-b]pyridine-6-carboxamide], the maximal response (Emax) under setting [2] was 73.3%. Moreover, under setting [1], the EC50 stood at 390 nM.
In the case of `Cn1ccc2c(Cc3ccc(-c4cscn4)cc3)cc(C(=O)N[C@H]3CCOC[C@@H]3O)nc21` [Compound 21, N-[(3R,4S)-3-hydroxytetrahydropyran-4-yl]-1-methyl-4-[(4-thiazol-4-ylphenyl)methyl]pyrrolo[2,3-b]pyridine-6-carboxamide], under setting [2], the Emax came out at 59.3%. Also, under setting [1], the EC50 was 20 nM.
